# No end group written: not given here.
# Key:
# [1] = biological target: T1, β2-adrenergic receptor (β2AR) (Homo sapiens, UniProt P07550); test: Buffer swapping RWG biosensor DMR assay (microplate) for long-acting agonism; assay type: cell-based
# T1 construct: 2 nM epinephrine-induced DMR signal of quiescent A431 cells; host or cells: A431 (human epidermoid carcinoma), serum-starved (quiescent)
# Method: Cells were typically grown using ˜1 to 2×10^4 cells per well at passage 3 to 15 suspended in 50 μl of the corresponding culture medium in the biosensor microplate, and were cultured at 37° C. under air/5% CO2 for ˜1 day. […] The confluency for all cells at the time of assays was ˜95% to 100%.
# quiescent A431 cells = test: Microfluidics-RWG biosensor DMR assay under pulse or sustained stimulation; assay type: cell-based, human; details: FIG. 8; for DMR signal under pulse stimulation compared with sustained epinephrine response: 2 min pulse, 2 nM epinephrine, 100 nM salbutamol, flow 1 microliter/min
# Method: (§1) Cells were typically grown using ˜1 to 2×10^4 cells per well at passage 3 to 15 suspended in 50 μl of the corresponding culture medium in the biosensor microplate, and were cultured at 37° C. under air/5% CO2 for ˜1 day. Except for A431 which was subject to ˜20 hr starvation through continuously culture in the serum-free DMEM, the A459 cells were directly assayed without starvation. The confluency for all cells at the time of assays was ˜95% to 100%. For cell culture in the microfluidics-biosensor chamber systems, ˜4×10^4 cells suspended in 10 μl the medium containing 10% FBS were injected into the chamber, and were cultured at 37° C. under air/5% CO2 until ˜95% confluency was reached (˜1 day). To prevent drying during the culture, the biosensor device was maintained within a petri dish with a cover, and extra cell medium within the dish.
# (§2) Label-free biosensor cell assays: Corning RWG (resonant waveguide grating) imaging system was used for label-free biosensor cell assays. The imaging system, based on swept wavelength interrogation, is capable of high resolution imaging, with a spatial resolution of 6 micron in the direction perpendicular to the propagation path of the coupled light, a resolution of about 150 or about 6 microns in the direction parallel to the propagation path of the coupled light. The cellular responses across the whole sensor were recorded in real time at each pixel (6 microns×6 microns). The cellular responses at defined locations or areas of the biosensor surface were averaged to generate responses of a population of cells within the detection area(s).
# The A431 cells reached high confluency before assays, and were subject to starvation for overnight with serum free medium. For A549 cells, cells were grown to high confluency and used for assays without starvation. Before assays, the cell medium was replaced with 1× Hanks' balanced salt solution (HBSS) having 20 mM Hepes buffer, and incubated within the imaging system for about 1 hour. […] The cellular responses throughout the assays were recorded using the high resolution imaging system. […]
# PAR1 receptor = biological target: T2, PAR1 receptor (Homo sapiens, UniProt P25116); test: Microfluidics-RWG biosensor DMR assay of A549 cells with PAR1 agonists; assay type: cell-based; details: for EC100: DMR; for Reversibility of the triggered cellular response: agonist removed after 30 min; for Response of pre-treated cells to second stimulation with 10 unit/ml thrombin: first exposure 30 min (SFLLR-amide 10 μM or thrombin 5 unit/ml), HBSS ~2 hours, then thrombin, FIG. 10; for P-DMR signal maximal amplitude (shift in resonant wavelength): thrombin 5 unit/ml, SFLLR-amide 10 μM, constant flow 1 microliter per min, FIG. 9
# T2 construct: triggered an almost indistinguishable DMR signal in A549 cells; host or cells: A549 (human lung carcinoma), not starved
# T2 sequence (P25116 22-425): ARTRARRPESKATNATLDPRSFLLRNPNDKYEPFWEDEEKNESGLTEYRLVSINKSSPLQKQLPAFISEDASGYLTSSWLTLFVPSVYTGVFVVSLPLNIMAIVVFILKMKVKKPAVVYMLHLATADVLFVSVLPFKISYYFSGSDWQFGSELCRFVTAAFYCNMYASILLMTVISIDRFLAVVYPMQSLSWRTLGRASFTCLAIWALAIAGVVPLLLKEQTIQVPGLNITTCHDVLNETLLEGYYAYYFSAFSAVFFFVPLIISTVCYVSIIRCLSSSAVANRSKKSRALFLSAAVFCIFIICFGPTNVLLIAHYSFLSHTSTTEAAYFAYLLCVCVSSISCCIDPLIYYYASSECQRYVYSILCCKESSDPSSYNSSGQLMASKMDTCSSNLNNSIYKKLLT
# Method: as §1, §2
# The A431 cells reached high confluency before assays, and were subject to starvation for overnight with serum free medium. For A549 cells, cells were grown to high confluency and used for assays without starvation. Before assays, the cell medium was replaced with 1× Hanks' balanced salt solution (HBSS) having 20 mM Hepes buffer, and incubated within the imaging system for about 1 hour. The chamber was filled with 6.6 micro-liters buffered solution. The HBSS buffer solution was initially introduced into the chamber from the inlet and flowed through the biosensor with a low flow rate (typically 1 μl/min or 1 microliter/min) using a controlled pump until a steady baseline was reached. Then, a first solution, typically a solution containing a receptor agonist or a compound dissolved in the HBSS buffer, was introduced by switching the valve, and flowed through the biosensor for a period of time (e.g., 1 min, or 5 min, or 30 min). Subsequently, the HBSS buffer solution was reintroduced and flowed through the biosensor to replace the first solution. After certain time period, a second solution, typically a solution containing a receptor agonist or a compound, either different or the same as the first solution, was introduced and flowed through the biosensor continuously to trigger a cellular response. The flow rate was typically relatively low (˜0.5 μ/min to 5 μl/min), such that no mechanical sensitive cellular responses were triggered, and the cellular responses observed were largely due to the chemical(s) in the solution. Different combinations of these steps can be applied, depending on the purpose of the assays. The cellular responses throughout the assays were recorded using the high resolution imaging system. Depending on the biosensor insert used, the biosensor has a dimension of 3 mm×3 mm or 2 mm×2 mm. The chamber dimension is a length of about 9 mm from the inlet to the outlet, a width of 5 mm, and a height of 100 microns from the sensor surface to the bottom surface of the chamber. The total volume of solution required to fill the chamber is about 6 micro-liters.
# For biosensor cellular assays, a baseline was established first. All studies were carried out at controlled temperature (22° C.) and with three replicates for each measurement, unless specifically mentioned. […]
# [2] = quiescent A431 cells, pulse about 60 sec, 100 nM norepinephrine, 100 nM salbutamol, 100 nM salmeterol, FIG. 7b
# T1 sequence (P07550 whole entry): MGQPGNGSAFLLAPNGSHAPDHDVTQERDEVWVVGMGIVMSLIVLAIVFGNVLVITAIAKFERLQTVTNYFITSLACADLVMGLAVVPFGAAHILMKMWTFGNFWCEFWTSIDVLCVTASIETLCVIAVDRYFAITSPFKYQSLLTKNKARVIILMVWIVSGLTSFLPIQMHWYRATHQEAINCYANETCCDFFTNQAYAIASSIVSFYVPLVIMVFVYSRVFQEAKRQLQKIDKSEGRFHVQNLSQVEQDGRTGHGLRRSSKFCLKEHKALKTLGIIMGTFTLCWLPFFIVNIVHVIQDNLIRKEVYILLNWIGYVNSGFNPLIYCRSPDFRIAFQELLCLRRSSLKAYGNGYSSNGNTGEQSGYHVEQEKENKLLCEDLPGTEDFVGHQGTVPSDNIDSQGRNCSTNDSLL
Molecule,EC100 (PAR1 receptor; A549 cells),Reversibility of the triggered cellular response (PAR1 receptor; A549 cells),P-DMR signal maximal amplitude (shift in resonant wavelength) (PAR1 receptor; A549 cells) [picometers],"Effect of pulse pre-treatment on the 2 nM epinephrine-induced DMR signal [1, 2]",DMR signal under pulse stimulation compared with sustained epinephrine response (quiescent A431 cells),Response of pre-treated cells to second stimulation with 10 unit/ml thrombin (PAR1 receptor; A549 cells),other results
CNC[C@H](O)c1ccc(O)c(O)c1 [epinephrine],–,–,–,little impact,much smaller response,–,"Response to second stimulation with 2 nM epinephrine after sustained pre-treatment ([1]; A431 cells pre-treated with 2 nM epinephrine under sustained stimulation, data not shown): completely desensitized; Long-acting or short-acting agonism at the β2AR ([1]; concluded from pulse stimulation through buffer swapping, quiescent A431 cells): short-acting agonist; Effect of pulse pre-treatment on the 2 nM epinephrine-induced DMR signal ([1]; quiescent A431 cells, pulse about 150 sec, 0.5 nM salmeterol, 1 nM CGP12177, 0.1 nM formeterol, FIG. 7a): did not cause the de-sensitization; DMR signal under sustained stimulation at slow flow rate (quiescent A431 cells; 2 nM epinephrine flowed throughout the assay, 1 microliter/min): comparable to that obtained using microplate-based sustained response"
C[C@@H]1C[C@@H]([C@H](O)CC2CC(=O)NC(=O)C2)C(=O)[C@@H](C)C1 [cycloheximide],–,–,–,–,–,–,"Effect on the second thrombin response of thrombin-treated A549 cells (PAR1 receptor; 10 μM cycloheximide in every solution, data not shown): largely eliminated"
CC(C)(C)NCC(O)c1ccc(O)c(CO)c1 (stereo not shown) [salbutamol],–,–,–,–,much smaller response,–,–
NC[C@H](O)c1ccc(O)c(O)c1 [norepinephrine],–,–,–,little impact,–,–,–

# Continued, in another order:
EC100 (PAR1 receptor; A549 cells),Reversibility of the triggered cellular response (PAR1 receptor; A549 cells),P-DMR signal maximal amplitude (shift in resonant wavelength) (PAR1 receptor; A549 cells) [picometers],Molecule,"Effect of pulse pre-treatment on the 2 nM epinephrine-induced DMR signal [1, 2]",DMR signal under pulse stimulation compared with sustained epinephrine response (quiescent A431 cells),Response of pre-treated cells to second stimulation with 10 unit/ml thrombin (PAR1 receptor; A549 cells),other results
10 µM,largely reversible,~400,"SFLLR-amide (SFLLR-NH2; UniProt P25116 42-46, looked up, fragment)",–,–,still able to respond to the second stimulation with thrombin with slightly smaller amplitude,"Plateau level of DMR signal above the baseline after switching back to HBSS (PAR1 receptor; A549 cells, 10 μM agonist replaced with HBSS 30 min after stimulation, FIG. 9a): about 120 picometers"
5 unit/ml,largely irreversible,~400,thrombin,–,–,only gave rise to a little response,"DMR signal after switching back to HBSS (PAR1 receptor; A549 cells, 5 unit/ml agonist replaced with HBSS 30 min after stimulation, FIG. 9b): still maintained elevated signal"
